Consider five molecules from US8309129B2, “Nanoparticles comprising a drug, ethylcellulose, and a bile salt” (Bend Research, Inc., priority 2007, dated 2012).

Assay type in all cases: physicochemical
The nature of one data set: Solubility of the drug.
A short description of data set [1]: Dynamic light scattering (DLS) of aqueous nanoparticle suspension as formed. Particulars: Tables 5 and 6; valdecoxib suspension samples. From the text:
The nanoparticles are small particles comprising the drug, ethylcellulose, and a bile salt. By “nanoparticles” is meant a plurality of small particles in which the average size of the particles in suspension is less than about 500 nm. By “average size” is meant the effective cumulant diameter as measured by dynamic light scattering, using for example, Brookhaven Instruments' 90Plus particle sizing instrument. By “size” is meant the diameter for spherical particles, or the maximum diameter for non-spherical particles. Preferably, the average size of the nanoparticles is less than 400 nm, more preferably less 300 nm, more preferably less than 150 nm, more preferably less than 100 nm, and most preferably less than 75 nm.
The width of the particle size distribution in suspension is given by the “polydispersity” of the particles, which is defined as the relative variance in the correlation decay rate distribution, as is known by one skilled in the art. […]
The particle size of the nanoparticles in the aqueous suspension was determined using dynamic light scattering (DLS) as follows. […] Dynamic light-scattering was measured using a Brookhaven Instruments (Holtsville, N.Y.) BI-200SM particle size analyzer with a BI-9000AT correlator. The sums of exponentials from the autocorrelation functions were analyzed using CONTIN software to extract size distributions from the samples. […]

Data set [2] can be described thus: Nanoparticle dissolution test of valdecoxib in Hank's buffer. To be noted: percent of total drug released per minute, 10 μg/mL, 37° C. The protocol: The dissolution rate of valdecoxib from nanoparticles of Example 12 was measured using the dissolution test as follows. The spray-dried composition of Example 12 were added to Hank's buffer to obtain a valdecoxib concentration of about 1 mgA/mL. The suspension was diluted to 10 μg/mL by adding 0.2 mL suspension to 20 mL buffer. The diluted suspension was placed on a shaker table in a 37° C. chamber, and aliquots were removed at 2, 5, and 10 minutes. The aliquots were centrifuged for 5 minutes at 12,000 rpm using a 30,000-dalton molecular-weight cutoff centrifuge tube filter, and 100 μL of the supernatant was added to 250 μL acetonitrile. The samples were assayed by HPLC. Crystalline drug alone was tested for comparison. The dissolution rate for nanoparticles of the invention was 3.6 times that of crystalline drug alone.

A further data set can be described thus: Measurement of free drug. The protocol: In one embodiment, the compositions of the present invention are capable of improving the concentration of dissolved drug in a use environment relative to a control composition consisting essentially of the drug alone without any ethylcellulose or bile salt. In order to determine concentration enhancement in vitro, the amount of “free” drug, or solvated drug is measured. By “free” drug is meant drug which is in the form of dissolved drug or present in micelles, but which is not in the nanoparticles or any solid particles larger than 500 nm, such as precipitate. A composition of the invention provides concentration enhancement if, when administered to an aqueous use environment, it provides a free drug concentration that is at least 1.25-fold the free drug concentration provided by the control composition. Preferably, the free drug concentration provided by the compositions of the invention are at least about 1.5-fold, more preferably at least about 2-fold, and most preferably at least about 3-fold that provided by the control composition.
The amount of free drug provided by a suspension of the nanoparticles of Example 11 was measured using the following procedure. […]
The amount of free drug provided by a suspension of the nanoparticles of Example 12 was measured as follows. […]

Where [3] appears, read: MFD solution, fassgf or other biorelevant, read-out: solubility in MFD solution.
Where [4] appears, read: water, read-out: solubility in water.

Values after ≈ are worked out from the molar mass of the structure shown. Where two headings read alike, the source gives them in different places.

What is called solubility is the concentration that dissolves in the medium under given conditions. Turning to `Cc1ccc(-c2cc(C(F)(F)F)nn2-c2ccc(S(N)(=O)=O)cc2)cc1` [Drug 1, 4-[5-(4-methylphenyl)-3-(trifluoromethyl)-1H-pyrazol-1-yl]benzenesulfonamide], the solubility in the data set “Solubility of the drug” (setting [3]) is roughly 40 µg/mL (≈ 105 µM).

For the molecule `CCOC(=O)N1c2ccc(C(F)(F)F)cc2[C@@H](N(Cc2cc(C(F)(F)F)cc(C(F)(F)F)c2)C(=O)OC)C[C@H]1CC` [Drug 3, [2R,4S]4-[(3,5-bis-trifluoromethyl-benzyl)-methoxycarbonyl-amino]-2-ethyl-6-trifluoromethyl-3,4-dihydro-2H-quinoline-1-carboxylic acid ethyl ester], the solubility in “Solubility of the drug” (setting [4]) is less than 0.1 µg/mL.

As to `Cc1onc(-c2ccccc2)c1-c1ccc(S(N)(=O)=O)cc1` [Drug 2, 4-(5-methyl-3-phenyl-4-isoxazolyl)benzenesulfonamide], the solubility in the data set “Solubility of the drug” (setting [4]) was roughly 10 µg/mL (≈ 31.8 µM).

Take `CC[C@@H]1C[C@H](N(Cc2cc(C(F)(F)F)cc(C(F)(F)F)c2)C(C)=O)c2cc(C(F)(F)F)ccc2N1C(=O)OC(C)C` [Drug 4, [2R,4S]4-[acetyl-(3,5-bis-trifluoromethyl-benzyl)-amino]-2-ethyl-6-trifluoromethyl-3,4-dihydro-2H-quinoline-1-carboxylic acid isopropyl ester]: the solubility in the data set “Solubility of the drug” (setting [3]) is roughly 11 µg/mL (≈ 18.4 µM).

Consider `Cc1onc(-c2ccccc2)c1-c1ccc(S(N)(=O)=O)cc1` [Crystalline Valdecoxib, valdecoxib], for which the “Average Particle Size” value in data set [1] was greater than 1000 nm. Further, the “Dissolution Rate” value in data set [2] is on record as 5.0 %/min. Besides, the “Free Drug” value in the data set “Measurement of free drug” (Table 5, aqueous suspension prior to spray-drying, 100,000-dalton cutoff filtrate) is 11 µg/mL; in “Measurement of free drug” (Table 6, spray-dried composition in dextrose solution, 100,000-dalton cutoff filtrate), 11 µg/mL.
